Reference: ChEMBL document CHEMBL1145198, “Checkpoint kinase inhibitors: SAR and radioprotective properties of a series of 2-arylbenzimidazoles” (J Med Chem, 2005)

Target: Serine/threonine-protein kinase Chk2 (Homo sapiens, UniProt O96017)
Test: Inhibition of recombinant human Chk2 kinase

Sequence of Serine/threonine-protein kinase Chk2 (O96017 whole entry): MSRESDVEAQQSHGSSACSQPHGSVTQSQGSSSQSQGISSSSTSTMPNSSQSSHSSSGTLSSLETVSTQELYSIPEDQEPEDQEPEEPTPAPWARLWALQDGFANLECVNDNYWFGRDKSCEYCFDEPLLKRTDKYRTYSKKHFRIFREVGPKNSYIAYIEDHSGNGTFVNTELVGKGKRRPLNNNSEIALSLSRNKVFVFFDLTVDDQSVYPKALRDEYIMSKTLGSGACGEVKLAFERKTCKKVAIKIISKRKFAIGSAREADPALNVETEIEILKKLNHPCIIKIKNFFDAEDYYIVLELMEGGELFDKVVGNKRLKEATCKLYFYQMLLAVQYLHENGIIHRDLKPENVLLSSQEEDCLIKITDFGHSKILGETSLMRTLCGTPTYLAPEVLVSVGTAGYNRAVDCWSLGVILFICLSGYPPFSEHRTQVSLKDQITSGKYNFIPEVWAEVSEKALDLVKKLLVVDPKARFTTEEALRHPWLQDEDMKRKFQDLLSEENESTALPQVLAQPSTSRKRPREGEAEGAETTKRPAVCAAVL

SMILES	IC50
NC(=O)c1ccc2nc(-c3ccc(C(=O)Nc4ccc(Cl)c(Cl)c4)cc3)[nH]c2c1	> 10 µM
CN(C)C(=O)c1ccc2[nH]c(-c3ccc(Oc4ccccc4)cc3)nc2c1	> 10 µM
